The numbers were not newly measured in US20110145936A1, “Genetically Modified Rat Models for Pharmacokinetics” (priority 2009, published 2011), which cites them from elsewhere.

Bounds are passed on as bounds.

The test system of data set [1] is Abcg2 & Abcb1. Particulars: gene Abcg2 & Abcb1.
For data set [2], the system named is Abcb1. Particulars: for direct liver mediated excretion: Abcb1-/- vs WT mice, cannulation of the gall bladder.
Data set [3] has as its target Abcb11 (Mus musculus, UniProt Q9QY30).
The target of data set [4] is Abcc1 (Mus musculus, UniProt O35379). As to conditions: for white blood cell, bone marrow nucleated cell and spleen myeloid activity: Abcc1 KO mice after etoposide.
Chain of Abcc1 (O35379 whole entry): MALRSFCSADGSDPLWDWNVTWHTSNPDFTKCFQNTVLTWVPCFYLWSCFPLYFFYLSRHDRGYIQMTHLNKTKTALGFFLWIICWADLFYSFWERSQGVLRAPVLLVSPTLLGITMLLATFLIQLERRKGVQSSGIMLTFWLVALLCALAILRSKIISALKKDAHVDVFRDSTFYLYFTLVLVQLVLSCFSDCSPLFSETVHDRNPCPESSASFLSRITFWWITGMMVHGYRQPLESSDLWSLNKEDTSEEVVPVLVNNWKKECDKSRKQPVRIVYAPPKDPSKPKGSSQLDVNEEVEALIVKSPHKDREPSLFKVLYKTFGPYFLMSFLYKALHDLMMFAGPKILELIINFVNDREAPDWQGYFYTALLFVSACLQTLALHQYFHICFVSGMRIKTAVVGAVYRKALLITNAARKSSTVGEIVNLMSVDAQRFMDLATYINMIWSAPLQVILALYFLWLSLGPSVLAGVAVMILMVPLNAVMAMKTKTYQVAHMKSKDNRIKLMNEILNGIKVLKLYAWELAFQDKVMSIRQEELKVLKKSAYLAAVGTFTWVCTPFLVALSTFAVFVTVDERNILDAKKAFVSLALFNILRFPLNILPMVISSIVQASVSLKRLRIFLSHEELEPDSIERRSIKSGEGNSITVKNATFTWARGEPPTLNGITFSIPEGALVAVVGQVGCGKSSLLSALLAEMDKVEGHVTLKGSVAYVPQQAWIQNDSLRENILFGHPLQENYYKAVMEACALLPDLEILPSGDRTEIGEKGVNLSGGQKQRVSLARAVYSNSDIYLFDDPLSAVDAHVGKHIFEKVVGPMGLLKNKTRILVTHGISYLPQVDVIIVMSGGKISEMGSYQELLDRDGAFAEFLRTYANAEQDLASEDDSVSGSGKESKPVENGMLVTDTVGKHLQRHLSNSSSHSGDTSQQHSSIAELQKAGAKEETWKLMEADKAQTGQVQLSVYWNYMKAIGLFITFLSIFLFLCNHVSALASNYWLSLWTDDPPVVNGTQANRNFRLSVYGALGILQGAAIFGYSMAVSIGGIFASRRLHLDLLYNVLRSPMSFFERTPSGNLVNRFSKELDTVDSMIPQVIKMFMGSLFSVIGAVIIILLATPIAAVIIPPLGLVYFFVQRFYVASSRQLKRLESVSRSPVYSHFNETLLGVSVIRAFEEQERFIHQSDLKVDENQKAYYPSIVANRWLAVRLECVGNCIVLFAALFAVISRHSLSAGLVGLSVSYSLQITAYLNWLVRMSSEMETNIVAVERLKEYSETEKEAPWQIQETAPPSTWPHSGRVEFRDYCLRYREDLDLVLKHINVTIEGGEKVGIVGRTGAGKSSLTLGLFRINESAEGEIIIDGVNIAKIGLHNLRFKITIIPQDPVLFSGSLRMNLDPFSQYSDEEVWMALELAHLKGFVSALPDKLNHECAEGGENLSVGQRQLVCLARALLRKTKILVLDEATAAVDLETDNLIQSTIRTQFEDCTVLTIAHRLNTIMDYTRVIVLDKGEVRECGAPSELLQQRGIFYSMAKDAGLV
Data set [5] has as its target T1, Slc7a11 (Homo sapiens, UniProt Q9UPY5).
T1 sequence (Q9UPY5 1-501): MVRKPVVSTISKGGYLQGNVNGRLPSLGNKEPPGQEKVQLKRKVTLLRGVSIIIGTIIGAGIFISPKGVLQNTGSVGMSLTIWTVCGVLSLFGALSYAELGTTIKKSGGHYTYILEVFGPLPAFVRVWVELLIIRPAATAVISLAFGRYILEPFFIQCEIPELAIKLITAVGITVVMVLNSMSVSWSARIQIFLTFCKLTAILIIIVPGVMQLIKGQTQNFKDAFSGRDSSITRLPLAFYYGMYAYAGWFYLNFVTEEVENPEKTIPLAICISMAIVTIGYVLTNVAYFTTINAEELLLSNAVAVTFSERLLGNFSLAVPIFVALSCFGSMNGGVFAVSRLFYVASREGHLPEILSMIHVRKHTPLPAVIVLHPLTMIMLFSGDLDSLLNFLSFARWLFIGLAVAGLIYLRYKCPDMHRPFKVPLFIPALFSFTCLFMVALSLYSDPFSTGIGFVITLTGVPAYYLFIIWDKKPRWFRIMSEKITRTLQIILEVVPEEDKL
T1 sequence (P08195 1-529 partner): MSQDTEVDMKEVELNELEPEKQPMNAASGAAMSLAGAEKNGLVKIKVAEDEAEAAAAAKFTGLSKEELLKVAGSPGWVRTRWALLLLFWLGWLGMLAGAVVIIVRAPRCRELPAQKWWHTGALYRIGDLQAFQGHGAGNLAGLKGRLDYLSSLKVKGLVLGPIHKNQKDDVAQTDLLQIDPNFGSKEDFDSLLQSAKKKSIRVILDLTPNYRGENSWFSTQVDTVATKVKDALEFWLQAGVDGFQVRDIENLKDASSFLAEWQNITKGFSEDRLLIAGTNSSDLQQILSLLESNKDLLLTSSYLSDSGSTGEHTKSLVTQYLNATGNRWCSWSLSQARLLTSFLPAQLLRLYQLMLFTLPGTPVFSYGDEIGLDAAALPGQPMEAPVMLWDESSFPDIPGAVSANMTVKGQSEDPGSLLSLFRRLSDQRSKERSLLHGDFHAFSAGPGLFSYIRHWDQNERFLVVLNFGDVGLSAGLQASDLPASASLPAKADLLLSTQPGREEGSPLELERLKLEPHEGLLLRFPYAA
As to conditions: WT Slc7a11 cells; more sensitive to the GA analog.

The target of data set [6] is Slc22a8 (Mus musculus, UniProt Q9WTW5). Particulars: gene Slc22a8.
Chain of Slc22a8 (Q9WTW5 whole entry): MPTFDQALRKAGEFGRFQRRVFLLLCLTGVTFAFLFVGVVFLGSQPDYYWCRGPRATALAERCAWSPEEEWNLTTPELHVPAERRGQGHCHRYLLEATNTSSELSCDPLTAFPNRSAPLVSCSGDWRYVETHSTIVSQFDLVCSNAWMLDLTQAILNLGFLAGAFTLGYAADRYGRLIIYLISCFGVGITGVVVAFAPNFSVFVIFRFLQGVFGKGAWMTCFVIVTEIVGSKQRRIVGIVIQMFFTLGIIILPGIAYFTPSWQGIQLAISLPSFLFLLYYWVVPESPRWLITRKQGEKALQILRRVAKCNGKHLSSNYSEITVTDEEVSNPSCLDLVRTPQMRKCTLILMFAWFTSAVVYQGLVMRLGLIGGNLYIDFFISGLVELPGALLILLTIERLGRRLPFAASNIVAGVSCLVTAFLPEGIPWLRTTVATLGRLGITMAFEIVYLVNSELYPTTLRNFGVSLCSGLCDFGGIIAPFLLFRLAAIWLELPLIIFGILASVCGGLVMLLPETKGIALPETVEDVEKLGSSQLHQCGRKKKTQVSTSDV
The test system of data set [7] is leukemia cell lines which express high levels of Slc29a1. As to conditions: graded levels of azacytidine in the presence of a tight binding Slc29a1 inhibitor.
Data set [8] deals with T2, Abcg2 (Mus musculus, UniProt Q7TMS5).
T2 construct: host or cells: whole animal: WT mice versus Abcg2-/- mice
T2 sequence (Q7TMS5 1-657): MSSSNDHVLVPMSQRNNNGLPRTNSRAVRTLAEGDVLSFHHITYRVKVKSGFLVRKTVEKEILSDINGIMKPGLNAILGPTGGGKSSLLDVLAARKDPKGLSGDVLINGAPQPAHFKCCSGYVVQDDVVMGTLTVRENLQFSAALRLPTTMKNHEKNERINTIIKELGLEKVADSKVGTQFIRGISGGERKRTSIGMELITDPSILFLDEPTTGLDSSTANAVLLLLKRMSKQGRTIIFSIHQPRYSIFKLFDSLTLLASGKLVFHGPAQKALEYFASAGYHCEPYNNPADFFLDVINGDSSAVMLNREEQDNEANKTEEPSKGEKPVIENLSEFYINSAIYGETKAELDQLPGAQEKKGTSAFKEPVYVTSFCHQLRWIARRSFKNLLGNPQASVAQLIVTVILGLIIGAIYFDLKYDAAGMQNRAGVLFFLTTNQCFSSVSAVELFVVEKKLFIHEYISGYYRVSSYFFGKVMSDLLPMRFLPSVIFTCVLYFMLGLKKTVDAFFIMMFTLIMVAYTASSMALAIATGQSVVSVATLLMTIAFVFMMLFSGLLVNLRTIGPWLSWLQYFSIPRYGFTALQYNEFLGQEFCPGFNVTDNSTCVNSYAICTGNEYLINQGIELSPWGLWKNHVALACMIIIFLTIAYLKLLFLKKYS
As to conditions: Abcg2-/- mice vs WT.

Chain of Abcb11 (Q9QY30 whole entry): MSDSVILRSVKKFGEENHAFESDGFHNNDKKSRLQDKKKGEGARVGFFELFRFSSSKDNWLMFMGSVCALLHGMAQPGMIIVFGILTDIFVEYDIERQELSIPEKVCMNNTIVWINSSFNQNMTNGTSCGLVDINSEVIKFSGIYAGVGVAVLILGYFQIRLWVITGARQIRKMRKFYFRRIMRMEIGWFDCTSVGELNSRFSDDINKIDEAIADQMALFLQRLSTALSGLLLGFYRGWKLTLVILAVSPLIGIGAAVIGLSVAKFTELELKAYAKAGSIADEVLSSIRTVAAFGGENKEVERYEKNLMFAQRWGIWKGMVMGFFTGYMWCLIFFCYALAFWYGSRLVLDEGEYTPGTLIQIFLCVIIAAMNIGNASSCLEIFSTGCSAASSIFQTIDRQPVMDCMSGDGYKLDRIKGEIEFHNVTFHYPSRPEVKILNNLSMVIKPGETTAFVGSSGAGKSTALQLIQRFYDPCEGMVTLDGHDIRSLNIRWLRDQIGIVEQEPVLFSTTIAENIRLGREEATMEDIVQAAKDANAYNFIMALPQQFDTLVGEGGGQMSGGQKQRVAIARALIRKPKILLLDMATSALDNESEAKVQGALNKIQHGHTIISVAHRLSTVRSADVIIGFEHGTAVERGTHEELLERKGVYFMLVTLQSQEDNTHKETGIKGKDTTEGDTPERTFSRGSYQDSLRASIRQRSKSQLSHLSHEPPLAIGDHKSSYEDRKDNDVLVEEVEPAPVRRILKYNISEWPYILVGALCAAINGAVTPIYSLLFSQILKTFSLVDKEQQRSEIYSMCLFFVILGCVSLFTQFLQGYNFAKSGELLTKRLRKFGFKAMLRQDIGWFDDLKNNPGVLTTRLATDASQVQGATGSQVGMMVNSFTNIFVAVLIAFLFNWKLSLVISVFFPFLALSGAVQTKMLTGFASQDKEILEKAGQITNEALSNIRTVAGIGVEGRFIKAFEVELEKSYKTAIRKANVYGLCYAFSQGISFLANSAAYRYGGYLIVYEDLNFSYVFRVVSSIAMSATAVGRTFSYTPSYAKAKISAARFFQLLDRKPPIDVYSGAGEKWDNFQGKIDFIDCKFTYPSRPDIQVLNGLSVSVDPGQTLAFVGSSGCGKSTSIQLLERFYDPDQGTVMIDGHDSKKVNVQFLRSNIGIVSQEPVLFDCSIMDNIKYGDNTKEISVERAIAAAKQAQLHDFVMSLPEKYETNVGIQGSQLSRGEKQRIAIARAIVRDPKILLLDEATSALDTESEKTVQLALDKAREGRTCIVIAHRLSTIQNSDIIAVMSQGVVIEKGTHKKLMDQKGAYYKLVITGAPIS

Consider `C(=N\NC1=NCCN1)/c1c2ccccc2c(/C=N/NC2=NCCN2)c2ccccc12` [Bisantrene], for which the Drug resistance/sensitivity result in data set [1] is listed as “Taxol analog (S),”.

As to `C[C@H]1O[C@@H](O[C@H]2[C@@H](O)C[C@H](O[C@H]3[C@@H](O)C[C@H](O[C@H]4CC[C@@]5(C)[C@H](CC[C@@H]6[C@@H]5C[C@@H](O)[C@]5(C)[C@@H](C7=CC(=O)OC7)CC[C@]65O)C4)O[C@@H]3C)O[C@@H]2C)C[C@H](O)[C@@H]1O` [digoxin], the “direct liver mediated excretion” value in data set [2] is recorded as “moderate decrease”.

`C[C@H](CCC(=O)NCCS(=O)(=O)O)[C@H]1CC[C@H]2[C@@H]3[C@H](O)C[C@@H]4C[C@H](O)CC[C@]4(C)[C@H]3C[C@H](O)[C@]12C` [Taurocholate]: the “bile acid output increase” value in data set [3] (WT mice after Taurocholate injection) is “output; WT mice show a 20-fold”. Also, in data set [3] (WT mice after tail vein injection), the taurocholate output increase was 20 fold.

For `COc1cc([C@@H]2c3cc4c(cc3[C@@H](O[C@@H]3O[C@@H]5CO[C@@H](C)O[C@H]5[C@H](O)[C@H]3O)[C@H]3COC(=O)[C@H]23)OCO4)cc(OC)c1OP(=O)(O)O` [Etoposide phosphate], the “toxicity in transporter deficient mice compared to WT” value in data set [4] (Abcc1-/- vs WT mice, single dose) is reported as “twice as toxic”. Besides, the “white blood cell, bone marrow nucleated cell and spleen myeloid activity” value in data set [4] was “severe depletion”.

For `C=CCNC1=C2C[C@@H](C)C[C@H](OC)[C@H](O)[C@@H](C)/C=C(\C)[C@H](OC(N)=O)[C@@H](OC)/C=C\C=C(/C)C(=O)NC(=CC1=O)C2=O` [17AAG, 17-(allyl-amino)-17 denethoxygelandomycin], the “sensitivity relative to GA” value in data set [5] is listed as 7.2 fold.

With `NCCc1c[nH]cn1` [Histamine], in data set [6], the Drug resistance/sensitivity entry is “Histamine (S),”.

As for `COc1cc([C@@H]2c3cc4c(cc3[C@@H](O[C@@H]3O[C@@H]5CO[C@@H](C)O[C@H]5[C@H](O)[C@H]3O)[C@H]3COC(=O)[C@H]23)OCO4)cc(OC)c1O` [Etoposide], the “white blood cell, bone marrow nucleated cell and spleen myeloid activity” value in data set [4] is “depleted in Abcc1 mice”. The Drug resistance/sensitivity entry in data set [4] (gene Abcc1) was “Etoposide (S)”.

As for `CC(=O)O[C@H]1C(=O)[C@@]2(C)[C@H]([C@H](OC(=O)c3ccccc3)[C@]3(O)C[C@H](OC(=O)[C@H](O)[C@@H](NC(=O)c4ccccc4)c4ccccc4)C(C)=C1C3(C)C)[C@]1(OC(C)=O)CO[C@@H]1C[C@@H]2O` [paclitaxel], the “direct liver mediated excretion” value in data set [2] is listed as “moderate decrease”. The organ penetration entry in data set [2] (brain, ovaries, adrenal gland and intestine of Abcb1-/- mice) was “increased penetration”.

As for `Nc1ncn([C@@H]2O[C@H](CO)[C@@H](O)[C@H]2O)c(=O)n1` [azacytidine], the loss in cytotoxicity in data set [7] is on record as above 10 fold.

`Cn1c(N)nc2ncc(-c3ccccc3)cc21` [PhIP]: in data set [8], the concentration entry is on record as “higher concentration” and the intestinal excretion entry was “highly impaired”.
